Measurements taken from US20260176265A1 (Cancer Research Technology Limited, priority 2022, published 2026).

What was measured:
[1] = target: T1, Phospho-EGFR (Tyr1068) in H1975 C797S cells (Homo sapiens, UniProt P00533, C797S/L858R/T790M); test: HTRF pEGFR/total EGFR assay in H1975 C797S cells; type: cell-based; details: H1975 C797S cells (CRISPR), compound 3 hours, ratio pEGFR/total EGFR
T1 construct: endogenous in cells; host or cells: H1975 C797S (CRISPR-edited in house from ATCC CRL-5908)
Method in brief: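 Phospho-EGFR (Tyr1068) and total EGFR were measured by HTRF (665 and 620 nm) in lysates of NGS-validated H1975 EGFR C797S cells. Cells were dosed for 3 h in duplicate, 0.1% DMSO final. Read-out is the pEGFR/total EGFR ratio relative to the 0 uM control, as percent.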

[2] = target: T2, Phospho-EGFR (Tyr1068) in A431 cells (Homo sapiens, UniProt P00533); test: HTRF pEGFR/total EGFR assay in A431 cells (EGF stimulated); type: cell-based; details: compound 2.5 hours then 100 ng/ml EGF 30 mins, ratio pEGFR/total EGFR
T2 construct: endogenous in cells; host or cells: A431
Method in brief: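 HTRF readout (665 and 620 nm) of Tyr1068-phosphorylated versus total EGFR in lysed A431 cells, expressed as ratio relative to 0uM control (%). Compound exposure 2.5 h in duplicate at 0.1% DMSO, with 100 ng/ml EGF added for 30 min.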

[3] = target: CtermHisTag-mEGFR Wild type (Homo sapiens, UniProt P00533); test: TR-FRET probe displacement assay, EGFR wild type; type: binding; details: EGFR wild type 1.25 nM, probe 100 nM, 30 mins room temperature
Sequence of CtermHisTag-mEGFR Wild type (P00533 25-1210): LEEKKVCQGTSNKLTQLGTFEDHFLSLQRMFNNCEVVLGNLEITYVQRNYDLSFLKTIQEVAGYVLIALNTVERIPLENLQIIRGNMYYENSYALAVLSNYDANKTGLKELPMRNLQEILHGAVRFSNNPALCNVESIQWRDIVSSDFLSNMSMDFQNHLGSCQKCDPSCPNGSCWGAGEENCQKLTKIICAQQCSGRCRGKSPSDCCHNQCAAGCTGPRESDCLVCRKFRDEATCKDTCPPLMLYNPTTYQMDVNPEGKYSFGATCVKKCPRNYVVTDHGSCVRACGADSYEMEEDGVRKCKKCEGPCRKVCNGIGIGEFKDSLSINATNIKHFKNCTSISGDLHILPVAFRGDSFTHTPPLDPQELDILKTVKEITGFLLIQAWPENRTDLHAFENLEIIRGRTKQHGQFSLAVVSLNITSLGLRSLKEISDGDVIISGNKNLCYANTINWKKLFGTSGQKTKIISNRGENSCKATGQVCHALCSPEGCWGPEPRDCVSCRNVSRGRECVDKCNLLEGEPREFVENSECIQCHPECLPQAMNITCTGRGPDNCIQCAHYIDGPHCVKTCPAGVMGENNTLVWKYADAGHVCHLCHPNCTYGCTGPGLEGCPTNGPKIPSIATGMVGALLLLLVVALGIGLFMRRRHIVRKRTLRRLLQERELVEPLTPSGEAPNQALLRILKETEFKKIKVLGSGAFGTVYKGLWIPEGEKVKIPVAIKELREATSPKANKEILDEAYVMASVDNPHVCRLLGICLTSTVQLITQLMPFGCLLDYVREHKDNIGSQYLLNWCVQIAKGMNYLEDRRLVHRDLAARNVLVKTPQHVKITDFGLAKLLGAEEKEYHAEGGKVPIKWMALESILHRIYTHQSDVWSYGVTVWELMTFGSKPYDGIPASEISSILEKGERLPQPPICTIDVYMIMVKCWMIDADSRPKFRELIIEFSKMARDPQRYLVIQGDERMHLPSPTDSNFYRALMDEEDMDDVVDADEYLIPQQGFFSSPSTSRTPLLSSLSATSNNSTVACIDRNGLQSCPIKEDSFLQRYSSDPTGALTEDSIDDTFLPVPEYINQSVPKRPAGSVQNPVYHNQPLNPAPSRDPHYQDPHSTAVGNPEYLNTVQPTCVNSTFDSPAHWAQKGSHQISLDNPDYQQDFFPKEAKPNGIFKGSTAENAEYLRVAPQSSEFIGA
Method in brief: (§1)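 Probe displacement from His-tagged wild-type or triple-mutant EGFR measured by TR-FRET (excitation 337 nm, emission 490/520 nm). Compounds spanned final concentrations from 3 to 100000 nM over ten points; technical replicates, repeated twice biologically.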

[4] = target: T3, Phospho-EGFR (Tyr1068) in H1975 cells (Homo sapiens, UniProt P00533, L858R/T790M); test: HTRF pEGFR/total EGFR assay in H1975 cells; type: cell-based; details: compound 3 hours, ratio pEGFR/total EGFR
T3 construct: host or cells: H1975
T3 sequence (P00533 25-1210 T790M/L858R): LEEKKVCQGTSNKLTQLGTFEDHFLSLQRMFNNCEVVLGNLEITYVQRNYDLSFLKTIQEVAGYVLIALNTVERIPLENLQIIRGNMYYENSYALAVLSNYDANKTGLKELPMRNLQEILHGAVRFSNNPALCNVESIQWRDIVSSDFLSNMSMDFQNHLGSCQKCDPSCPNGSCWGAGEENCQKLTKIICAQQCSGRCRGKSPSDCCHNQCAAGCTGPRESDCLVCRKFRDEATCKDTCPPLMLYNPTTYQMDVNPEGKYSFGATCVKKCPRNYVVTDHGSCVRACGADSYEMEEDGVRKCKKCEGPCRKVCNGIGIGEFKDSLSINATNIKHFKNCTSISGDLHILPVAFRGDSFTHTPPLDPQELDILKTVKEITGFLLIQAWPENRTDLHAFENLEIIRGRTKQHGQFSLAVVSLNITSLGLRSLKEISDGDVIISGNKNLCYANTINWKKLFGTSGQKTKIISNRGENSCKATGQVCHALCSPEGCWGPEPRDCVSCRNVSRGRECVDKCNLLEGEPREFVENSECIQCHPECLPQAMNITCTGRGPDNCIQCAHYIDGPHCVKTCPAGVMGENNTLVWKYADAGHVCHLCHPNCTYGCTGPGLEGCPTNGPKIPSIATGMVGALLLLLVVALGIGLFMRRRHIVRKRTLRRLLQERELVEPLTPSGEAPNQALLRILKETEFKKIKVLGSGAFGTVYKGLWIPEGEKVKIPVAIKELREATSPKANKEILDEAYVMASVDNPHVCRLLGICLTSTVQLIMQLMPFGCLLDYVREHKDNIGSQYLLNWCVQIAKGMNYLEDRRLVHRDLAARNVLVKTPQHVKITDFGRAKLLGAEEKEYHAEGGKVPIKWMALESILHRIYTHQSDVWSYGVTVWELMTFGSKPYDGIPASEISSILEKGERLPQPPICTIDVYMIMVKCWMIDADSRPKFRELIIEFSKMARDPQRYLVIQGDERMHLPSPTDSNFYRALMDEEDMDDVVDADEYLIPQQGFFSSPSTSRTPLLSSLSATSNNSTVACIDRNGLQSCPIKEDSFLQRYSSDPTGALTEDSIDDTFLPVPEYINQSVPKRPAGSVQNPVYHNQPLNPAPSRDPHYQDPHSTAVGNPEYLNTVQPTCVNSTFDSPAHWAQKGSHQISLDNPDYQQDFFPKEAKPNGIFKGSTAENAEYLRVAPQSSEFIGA
Method in brief: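 H1975 cells (EGFR L858R/T790M) adhered 24 h, then compound-treated for 3 h in duplicate, 0.1% DMSO final. Lysates read by HTRF at 665/620 nm for phospho-Tyr1068 and total EGFR. Value is pEGFR/total EGFR ratio as % of 0 uM control.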

[5] = target: CtermHisTag-mEGFR Triple Mutant - C797S, L858R, T790M (Homo sapiens, UniProt P00533, C797S/L858R/T790M); test: TR-FRET probe displacement assay, EGFR triple mutant; type: binding; details: T790M 1.25 nM, probe 100 nM, 30 mins room temperature
Sequence of CtermHisTag-mEGFR Triple Mutant - C797S, L858R, T790M (P00533 25-1210 T790M/C797S/L858R): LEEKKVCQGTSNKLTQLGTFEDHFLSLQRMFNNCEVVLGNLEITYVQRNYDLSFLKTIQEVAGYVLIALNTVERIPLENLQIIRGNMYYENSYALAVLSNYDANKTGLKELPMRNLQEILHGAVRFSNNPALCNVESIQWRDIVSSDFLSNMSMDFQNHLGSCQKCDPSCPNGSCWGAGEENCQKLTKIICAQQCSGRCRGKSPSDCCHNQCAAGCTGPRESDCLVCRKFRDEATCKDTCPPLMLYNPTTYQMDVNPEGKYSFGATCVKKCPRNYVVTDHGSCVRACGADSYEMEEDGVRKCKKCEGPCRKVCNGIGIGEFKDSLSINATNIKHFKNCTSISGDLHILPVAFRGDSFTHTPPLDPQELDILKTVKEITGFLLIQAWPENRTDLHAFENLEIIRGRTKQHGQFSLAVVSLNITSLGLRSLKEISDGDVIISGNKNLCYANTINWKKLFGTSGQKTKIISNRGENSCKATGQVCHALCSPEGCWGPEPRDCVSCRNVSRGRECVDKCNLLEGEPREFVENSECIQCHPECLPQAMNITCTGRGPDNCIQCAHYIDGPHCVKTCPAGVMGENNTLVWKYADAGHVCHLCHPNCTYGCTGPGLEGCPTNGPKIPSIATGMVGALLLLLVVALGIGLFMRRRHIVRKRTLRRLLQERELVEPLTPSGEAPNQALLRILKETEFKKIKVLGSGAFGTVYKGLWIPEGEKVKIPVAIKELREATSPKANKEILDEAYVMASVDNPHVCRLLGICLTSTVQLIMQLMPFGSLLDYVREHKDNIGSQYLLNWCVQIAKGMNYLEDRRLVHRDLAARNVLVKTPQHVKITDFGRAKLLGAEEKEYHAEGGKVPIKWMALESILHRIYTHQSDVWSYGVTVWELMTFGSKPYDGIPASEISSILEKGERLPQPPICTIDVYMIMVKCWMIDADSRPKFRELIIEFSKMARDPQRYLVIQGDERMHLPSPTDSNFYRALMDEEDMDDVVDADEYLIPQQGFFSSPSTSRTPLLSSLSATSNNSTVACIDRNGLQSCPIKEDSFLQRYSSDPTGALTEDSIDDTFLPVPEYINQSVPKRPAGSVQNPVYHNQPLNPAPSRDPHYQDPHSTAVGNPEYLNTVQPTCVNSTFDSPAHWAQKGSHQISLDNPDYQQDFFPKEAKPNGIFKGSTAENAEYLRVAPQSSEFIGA
Method in brief: as §1

T1 sequence (P00533 25-1210 T790M/C797S/L858R): as above

IC50 [1] | IC50 [2] | IC50 [3] | IC50 [4] | IC50 [5] | Compound
> 3000 nM | > 3000 nM | > 10000 nM | > 3000 nM | < 20 nM | C#Cc1cc(NC(=O)NC2CCCC2)nc2nc(Nc3ccc(S(=O)(=O)N(C)C)cc3)ncc12 [Example 82, 3-Cyclopentyl-1-(2-([4-(dimethylsulfamoyl)phenyl]amino-5-ethynyl)pyrido[2,3-d]pyrimidin-7-yl)urea]
< 500 nM | > 3000 nM | < 1000 nM | < 500 nM | < 20 nM | C#Cc1cc(NC(=O)NC2CCCC2)nc2nc(Nc3ccc(N(C)C(=O)CN(C)C)cc3)ncc12 [Example 83]
< 500 nM | > 3000 nM | < 1000 nM | < 500 nM | < 20 nM | C#Cc1cc(NC(=O)NC2CCCC2)nc2nc(Nc3ccc(S(=O)(=O)N(C)CCN(C)C)cc3)ncc12 [Example 84]
< 500 nM | 1000 to 3000 nM | < 1000 nM | > 3000 nM | 20 to 100 nM | C#Cc1cc(NC(=O)NC2CCCC2)nc2nc(Nc3cccc(CN4CC(CS(C)(=O)=O)C4)c3)ncc12 [Example 85]
500 to 1000 nM | 1000 to 3000 nM | < 1000 nM | > 3000 nM | 20 to 100 nM | C#Cc1cc(NC(=O)NC2CCCC2)nc2nc(Nc3cccc(CN4CCC(CS(C)(=O)=O)C4)c3)ncc12 (stereo not shown) [Example 86]
< 500 nM | 1000 to 3000 nM | < 1000 nM | > 3000 nM | 20 to 100 nM | C#Cc1cc(NC(=O)NC2CCCC2)nc2nc(Nc3cccc(CN4CCC(CS(C)(=O)=O)CC4)c3)ncc12 [Example 87]
> 3000 nM | > 3000 nM | > 10000 nM | > 3000 nM | 100 to 1000 nM | C#Cc1cc(NC(=O)NC2CCCC2)nc2nc(Nc3cccc4c3CCN(C)C4)ncc12 [Example 88, 3-Cyclopentyl-1-{5-ethynyl-2-[(2-methyl-3,4-dihydro-1H-isoquinolin-5-yl)amino]pyrido[2,3-d]pyrimidin-7-yl}urea]
> 3000 nM | > 3000 nM | > 10000 nM | > 3000 nM | 1000 to 50000 nM | C#Cc1cc(NC(=O)NC2CCCC2)nc2nc(Nc3ccccc3N3CCC(CS(C)(=O)=O)C3)ncc12 (stereo not shown) [Example 89]
> 3000 nM | > 3000 nM | > 10000 nM | > 3000 nM | 1000 to 50000 nM | C#Cc1cc(NC(=O)NC2CCCC2)nc2nc(Nc3ccccc3N3CCC(CS(C)(=O)=O)CC3)ncc12 [Example 90, 3-Cyclopentyl-1-[5-ethynyl-2-({2-[4-(methanesulfonylmethyl)piperidin-1-yl]phenyl}amino)pyrido[2,3-d]pyrimidin-7-yl]urea]
1000 to 3000 nM | 1000 to 3000 nM | < 1000 nM | 500 to 1000 nM | < 20 nM | C#Cc1cc(N2C(=O)NCC23CCCC3)nc2nc(Nc3ccc(N4CCOCC4)cc3)ncc12 [Example 91, 1-(5-Ethynyl-2-{[4-(morpholin-4-yl)phenyl]amino}pyrido[2,3-d]pyrimidin-7-yl)-1,3-diazaspiro[4.4]nonan-2-one]
1000 to 3000 nM | 1000 to 3000 nM | < 1000 nM | 500 to 1000 nM | < 20 nM | C#Cc1cc(N2C(=O)NCC23CCCC3)nc2nc(Nc3ccc(N4CCN(C5COC5)CC4)cc3)ncc12 [Example 92, 1-[5-Ethynyl-2-({4-[4-(oxetan-3-yl)piperazin-1-yl]phenyl}amino)pyrido[2,3-d]pyrimidin-7-yl]-1,3-diazaspiro[4.4]nonan-2-one]
1000 to 3000 nM | 1000 to 3000 nM | > 10000 nM | > 3000 nM | 20 to 100 nM | C#Cc1cc(N2C(=O)NCC23CCCC3)nc2nc(Nc3ccc(N(C)C(C)=O)cc3)ncc12 [Example 93, N-{4-[(5-Ethynyl-7-{2-oxo-1,3-diazaspiro[4.4]nonan-1-yl}pyrido[2,3-d]pyrimidin-2-yl)amino]phenyl}-N-methylacetamide]
1000 to 3000 nM | 1000 to 3000 nM | < 1000 nM | 1000 to 3000 nM | 20 to 100 nM | C#Cc1cc(N2C(=O)NCC23CCCC3)nc2nc(Nc3ccc(N(C)C(=O)CN(C)C)cc3)ncc12 [Example 94, 2-(Dimethylamino)-N-{4-[(5-ethynyl-7-{2-oxo-1,3-diazaspiro[4.4]nonan-1-yl}pyrido[2,3-d]pyrimidin-2-yl)amino]phenyl}-N-methylacetamide]
1000 to 3000 nM | 500 to 1000 nM | < 1000 nM | 1000 to 3000 nM | 20 to 100 nM | C#Cc1cc(N2C(=O)NCC23CCCC3)nc2nc(Nc3ccc(OCCN(C)C)cc3)ncc12 [Example 95]
1000 to 3000 nM | 1000 to 3000 nM | < 1000 nM | 500 to 1000 nM | < 20 nM | C#Cc1cc(N2C(=O)NCC23CCCC3)nc2nc(Nc3ccc(S(C)(=O)=O)cc3)ncc12 [Example 96, 1-{5-Ethynyl-2-[(4-methanesulfonylphenyl)amino]pyrido[2,3-d]pyrimidin-7-yl}-1,3-diazaspiro[4.4]nonan-2-one]
> 3000 nM | > 3000 nM | > 10000 nM | > 3000 nM | 20 to 100 nM | C#Cc1cc(N2C(=O)NCC23CCCC3)nc2nc(Nc3ccc(S(=O)(=O)N(C)C)cc3)ncc12 [Example 97, 4-[(5-Ethynyl-7-{2-oxo-1,3-diazaspiro[4.4]nonan-1-yl}pyrido[2,3-d]pyrimidin-2-yl)amino]-N,N-dimethylbenzenesulfonamide]
> 3000 nM | 1000 to 3000 nM | < 1000 nM | > 3000 nM | 20 to 100 nM | C#Cc1cc(N2C(=O)NCC23CCCC3)nc2nc(Nc3ccc(S(=O)(=O)N(C)CCN(C)C)cc3)ncc12 [Example 98, N-[2-(dimethylamino)ethyl]-4-[(5-ethynyl-7-{2-oxo-1,3-diazaspiro[4.4]nonan-1-yl}pyrido[2,3-d]pyrimidin-2-yl)amino]-N-methylbenzenesulfonamide]
< 500 nM | > 3000 nM | < 1000 nM | < 500 nM | < 20 nM | C#Cc1cc(N2C(=O)NC[C@@H]2C(C)C)nc2nc(Nc3ccc(N4CCN(C)CC4)cc3)ncc12 [Example 99, (5S)-1-(5-Ethynyl-2-{[4-(4-methylpiperazin-1-yl)phenyl]amino}pyrido[2,3-d]pyrimidin-7-yl)-5-isopropylmidazolidin-2-one]
1000 to 3000 nM | > 3000 nM | > 10000 nM | 500 to 1000 nM | 100 to 1000 nM | C#Cc1cc(N2C(=O)NC[C@H]2C(C)C)nc2nc(Nc3ccc(N4CCN(C)CC4)cc3)ncc12 [Example 100, (5R)-1-(5-Ethynyl-2-{[4-(4-methylpiperazin-1-yl)phenyl]amino}pyrido[2,3-d]pyrimidin-7-yl)-5-isopropylmidazolidin-2-one]
> 3000 nM | > 3000 nM | 1000 to 10000 nM | 500 to 1000 nM | 20 to 100 nM | C#Cc1cc(N2C(=O)NC[C@H]2COC)nc2nc(Nc3ccc(N4CCN(C)CC4)cc3)ncc12 [Example 101, (5S)-1-(5-Ethynyl-2-{[4-(4-methylpiperazin-1-yl)phenyl]amino}pyrido[2,3-d]pyrimidin-7-yl)-5-(methoxymethyl)imidazolidin-2-one]
